The assay concerns the target T1, human PRMT1 (Homo sapiens, UniProt Q99873).
T1 construct: GST-tagged PRMT1; made in house; host or cells: High Five insect cells (baculovirus)
The experiment in a line: PRMT1 Biochemical Assay. Conditions: biochemical evaluation, peptide substrate. An excerpt:
S-adenosylmethionine (SAM), S-adenosylhomocysteine (SAH), bicine, Tween20, dimethylsulfoxide (DMSO), bovine skin gelatin (BSG), and Tris(2-carboxyethyl)phosphine hydrochloride solution (TCEP) were purchased from Sigma-Aldrich at the highest level of purity possible. ^3H-SAM was purchase from American Radiolabeled Chemicals with a specific activity of 80 Ci/mmol. 384-well streptavidin Flashplates were purchased from PerkinElmer.
Peptide representative of human histone H4 residues 36-50 was synthesized with an N-terminal linker-affinity tag motif and a C-terminal amide cap by 21st Century Biochemicals. The peptide was purified by high-performance liquid chromatography (HPLC) to greater than 95% purity and confirmed by liquid chromatography mass spectrometry (LC-MS). The sequence was Biot-Ahx-[…]-amide (SEQ ID NO.: 1). […]
The assays were all performed in a buffer consisting of 20 mM Bicine (pH=7.6), 1 mM TCEP, 0.005% BSG, and 0.002% Tween 20, prepared on the day of use. […] The plates were then read in a PerkinElmer TopCount plate reader to measure the quantity of ^3H-labeled peptide bound to the Flashplate surface, measured as disintegrations per minute (dpm) or alternatively, referred to as counts per minute (cpm). […]

Some results are limits rather than exact numbers.

T1 sequence (Q99873 with tags, fused parts or gaps): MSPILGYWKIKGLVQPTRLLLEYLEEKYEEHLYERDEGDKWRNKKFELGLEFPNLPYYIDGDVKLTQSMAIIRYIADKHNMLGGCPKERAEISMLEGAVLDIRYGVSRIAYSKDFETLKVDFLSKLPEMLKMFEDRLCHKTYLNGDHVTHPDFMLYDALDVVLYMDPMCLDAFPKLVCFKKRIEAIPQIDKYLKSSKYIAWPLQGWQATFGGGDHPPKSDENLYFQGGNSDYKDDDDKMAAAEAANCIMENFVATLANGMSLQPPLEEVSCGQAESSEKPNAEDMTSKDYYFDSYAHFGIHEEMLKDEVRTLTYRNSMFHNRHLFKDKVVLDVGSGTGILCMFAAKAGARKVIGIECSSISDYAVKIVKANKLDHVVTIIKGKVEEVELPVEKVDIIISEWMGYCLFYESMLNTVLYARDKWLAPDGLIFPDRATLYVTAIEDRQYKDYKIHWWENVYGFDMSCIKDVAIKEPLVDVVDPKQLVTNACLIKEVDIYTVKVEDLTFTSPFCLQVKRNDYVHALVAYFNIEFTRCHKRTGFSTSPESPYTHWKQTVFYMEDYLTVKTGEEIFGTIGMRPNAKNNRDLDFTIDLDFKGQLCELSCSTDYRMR

The compound `CN(CCN)Cc1n[nH]c2cccc(OCc3ccccc3)c12` [Compound 1] showed a half-maximal inhibitory concentration (IC50) of at most 100 nM.

The values are drawn from US9943504B2, “Arginine methyltransferase inhibitors and uses thereof” (Epizyme, Inc., priority 2013, dated 2018).
